Assay [1] concerns the target T1, P2X7 (Homo sapiens, UniProt Q99572).
T1 sequence (Q99572 1-595): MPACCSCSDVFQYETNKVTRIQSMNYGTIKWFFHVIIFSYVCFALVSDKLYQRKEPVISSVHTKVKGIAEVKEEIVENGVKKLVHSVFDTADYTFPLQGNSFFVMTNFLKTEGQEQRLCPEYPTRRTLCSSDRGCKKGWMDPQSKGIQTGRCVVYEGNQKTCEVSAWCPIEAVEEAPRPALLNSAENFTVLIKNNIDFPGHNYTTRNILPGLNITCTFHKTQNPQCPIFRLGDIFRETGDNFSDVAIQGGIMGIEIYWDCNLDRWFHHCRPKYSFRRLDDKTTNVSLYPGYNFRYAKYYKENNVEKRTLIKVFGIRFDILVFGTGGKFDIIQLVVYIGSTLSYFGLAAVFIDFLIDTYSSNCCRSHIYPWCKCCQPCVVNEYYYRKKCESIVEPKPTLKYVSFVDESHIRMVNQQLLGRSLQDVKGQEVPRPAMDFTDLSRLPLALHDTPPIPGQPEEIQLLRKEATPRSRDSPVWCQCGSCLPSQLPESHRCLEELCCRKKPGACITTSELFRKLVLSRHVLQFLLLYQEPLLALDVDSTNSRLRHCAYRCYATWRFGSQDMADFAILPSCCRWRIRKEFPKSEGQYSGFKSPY
Nature of the assay: Pore permeation assay (YO PRO dye uptake, BzATP-induced). The assay is classed as cell-based. Set-up: expressed in transfected cells; host or cells: HEK293. The following applies: HEK293 transfected with human P2X7 receptor, BzATP 10 uM, read-out: hP2X7 IC50. On the procedure:
Agonist-induced pore formation was determined by measuring cellular uptake of YO PRO fluorescence dye in HEK293 transfected with human P2X7 receptor. A HEK293 cell over expressing human P2X7 was harvested using HQTase reagent to detach the cells from T75 cm flask. The harvested cells are centrifuged @1200 rpm for 5 min at room temperature. The viability of cells was determined by Trypan blue dye and the cells are plated @10,000 cell/well in 50 ul volume in a 384W BD Poly lysine coated plate and incubated overnight at 37 C. After overnight incubation, the culture medium was replaced with 35 ul/well assay buffer (5 mM KCl, 0.1 mM CaCl2, 5 mM Glucose, 10 mM HEPES buffer pH7.4 containing 125 mM NaCl. The serial dilution of compounds was performed using Bravo liquid handling instrument and the compounds were added using Bravo to the cell assay plate starting at 2.5 uM with three dilutions for 10 points. The positive control inhibitor compound was added to column 23. The plate was shaken slowly on a plate shaker for 10 seconds. The cells were incubated with the compound for 20 minutes at room temperature. After the incubation period, YO PRO dye (1 uM) along with BzATP (10 uM) were added to cells at 10 ul/well. The plate was centrifuged at 1000 rpm for 5 seconds and incubated at room temperature for 30 minutes. The uptake of YO PRO dye into the cells was measured using Envision Fluorescence plate reader instrument (Perkin Elmer).

Assay [2] concerns the target T1, P2X7. Nature of the assay: IL-1β release assay in THP-1 cells (sandwich ELISA, BzATP-stimulated). The following applies: LPS primed, 0.8 mM BzATP, mature IL-1β release, read-out: hTHP-1/IL-ib IC50. It counts as cell-based. More on the design: endogenous in cells; host or cells: THP-1 cells (PMA-differentiated, LPS-primed). As for the experimental part: IL-1β release assay: The activation of P2X7 by ATP leads to a fast transient activation of cells resulting in influx of Ca^2+ followed by conversion of pro-IL-1β to active IL-1β. The functional activity of P2X7 compounds was measured by the release of mature IL-1β in the culture medium of THP-1 cells, detected by sandwich ELISA. Cells were maintained in complete growth medium (RPMI 1640+10% HI-FCS+2 mM L-glutamine+1× PS). […] THP-1 cells were harvested from the flask in 50 ml by centrifugation for 3 min at 100 g. The cells were resuspended to 2×10^5 cells/ml in medium supplemented with 0.5 μM PMA and incubated. The cells were washed and resuspended to 1.5×10^5 cells/ml in medium complemented with 10 ng/ml LPS, and the cells were primed for 4 h at 37° C., 5% CO2. After addition of 20 μL of prediluted test compounds, blank, standard and control reagents, cells were incubated for a further 20 min at 37° C. and stimulated with 0.8 mM BzATP for 30 minutes. The cells were centrifuged, supernatant was collected and the presence of mature IL-1β was detected using Dual human IL-1b kit following manufacturer's instruction. The tetrahydrobenzodiazepine analogs effectively modulated the activity of P2X7 in the cells as measured by the levels of pro-inflammatory cytokine IL-1β, which is released by the activation of P2X7 receptor.
(In an ELISA, binding on a coated surface is turned into a signal by an enzyme label.)

Regarding `COCCc1cc(C(=O)NCC2(O)CCC(F)(F)C(C)C2)c2c(Cl)cccn12` (centres unmarked) [Compound 43, 8-chloro-N-((4,4-difluoro-1-hydroxy-3-methylcyclohexyl)methyl)-3-(2-methoxyethyl)indolizine-1-carboxamide], the values for the IC50 on P2X7 [1] and on P2X7 [2] were 10 to 100 nM and 101 to 500 nM, respectively.

With `O=C(NCC1CCC(F)(F)CC1)c1cc(C2=CCOC2)n2cccc(Cl)c12` [Compound 21, 8-chloro-N-((4,4-difluorocyclohexyl)methyl)-3-(2,5-dihydrofuran-3-yl) indolizine-1-carboxamide], the IC50 on P2X7 [1] and on P2X7 [2] was 101 to 500 nM throughout.

Regarding `O=C(NCC1CCCC(F)(F)C1)c1cc(C2CCCO2)n2cccc(Cl)c12` (centres unmarked) [Compound 17, 8-Chloro-3-(tetrahydro-furan-2-yl)-indolizine-1-carboxylic Acid (3,3-difluoro-cyclohexylmethyl)-amide], the figures for the IC50 on P2X7 [1] and on P2X7 [2] were below 10 nM and 10 to 100 nM, respectively.

`COCCc1cc(C(=O)NCC2(O)CCCC(F)(F)C2)c2c(C(F)(F)F)cccn12` (centres unmarked) [Compound 60, 3-(2-Methoxy-ethyl)-8-trifluoro methylindolizine-1-carboxylic Acid (3,3-difluoro-1-hydroxy-cyclohexylmethyl)-amide]: the results for the IC50 at P2X7 [1] and at P2X7 [2] were 101 to 500 nM and 10 to 100 nM, respectively.

With `O=C(NCC1(O)CCC(F)(F)CC1)c1cc(C2CCOC2)n2cccc(Cl)c12` (centres unmarked) [Compound 61, 8-chloro-N-((4,4-difluoro-1-hydroxycyclohexyl)methyl)-3-(tetrahydrofuran-3-yl)indolizine-1-carboxamide], the IC50 on P2X7 [1] and at P2X7 [2] was 10 to 100 nM in each case.

Turning to `O=C(NCC1CCC(F)(F)CC1)c1cc(C2CCCO2)n2cccc(Cl)c12` (centres unmarked) [Compound 23, 8-Chloro-3-(tetrahydro-furan-2-yl)-indolizine-1-carboxylic Acid (4,4-difluoro-cyclohexyl methyl)-amide], the IC50 on P2X7 [1] and at P2X7 [2] was 10 to 100 nM throughout.

Turning to `COCCc1cc(C(=O)NCC2CCC(F)(F)CC2)c2c(Cl)cccn12` [Compound 37, 8-chloro-N-((4,4-difluorocyclohexyl)methyl)-3-(2-methoxyethyl) indolizine-1-carboxamide], the IC50 on P2X7 [1] and on P2X7 [2] was 10 to 100 nM each time.

`COCCc1cc(C(=O)NCC2(O)CCCCCC2)c2c(Cl)cccn12` [Compound 35, 8-chloro-N-((1-hydroxycycloheptyl)methyl)-3-(2-methoxyethyl)indolizine-1-carboxamide]: the IC50 on P2X7 [1] and at P2X7 [2] was 10 to 100 nM in each case.

For “(S)-8-chloro-N-((4,4-difluoro-1-hydroxycyclohexyl)methyl)-3-((tetrahydrofuran-3-yl)methyl)indolizine-1-carboxamide [Compound 52]”, the IC50 at P2X7 [1] and on P2X7 [2] was 10 to 100 nM throughout.

For the compound “(R)-8-chloro-N-((4,4-difluoro-1-hydroxycyclohexyl)methyl)-3-((tetrahydrofuran-3-yl)methyl)indolizine-1-carboxamide [Compound 50]”, the results for the IC50 on P2X7 [1] and at P2X7 [2] were 10 to 100 nM and 101 to 500 nM, respectively.

On to `COCCc1cc(C(=O)NCC2CC(C)CC(F)(F)C2)c2c(Cl)cccn12` (centres unmarked) [Compound 13, 8-chloro-N-((3,3-difluoro-5-methylcyclohexyl)methyl)-3-(2-methoxyethyl)indolizine-1-carboxamide], for which the IC50 on P2X7 [1] and at P2X7 [2] was 10 to 100 nM throughout.

In the case of `O=C(NCC1CCCC(F)(F)C1)c1cc(C2CCOC2)n2cccc(Cl)c12` (centres unmarked) [Compound 39, 8-Chloro-3-(tetrahydro-furan-3-yl)-indolizine-1-carboxylic Acid (3,3-difluoro-cyclohexyl methyl)-amide], the IC50 on P2X7 [1] was in the range of 10 to 100 nM; on P2X7 [2], 101 to 500 nM.

As for `O=C(NCC1CCCCCC1)c1cc(CCO)n2cccc(Cl)c12` [Compound 6, 8-chloro-N-(cycloheptylmethyl)-3-(2-hydroxyethyl)indolizine-1-Carboxamide], the IC50 on P2X7 [1] and on P2X7 [2] was 10 to 100 nM in each case.

Source of the values: patent publication US9931324B2, “Indolizine derivatives and their use in neurodegenerative diseases” (Merck Patent GmbH, priority 2014, dated 2018).
